Legend:
[1] = system: β-D-xylosidase (EC 3.2.1.37); experiment: Induction of a β-D-xylosidase response in elicited cells; type: cell-based, Acer pseudoplatanus L.; conditions: 50 nM elicitor; for β-D-xylosidase response R (activity in elicited cells/non-elicited control cells), maximal: 15 minutes; for β-D-xylosidase response: 42 hours; for β-D-xylosidase response R: after 1 hour
Procedure: Vegetable material: Acer pseudoplatanus L Cells in Suspension
Test: 2.10^6 Acer pseudoplatanus L. cells were elicited under circular stirring (80 rpm), in 25 ml of culture medium (without 2,4-D) by 50 nM of 2′-fucosyl lactose (compound A) or 50 nM of methyl α-L-Fuc (1→2) β-D-Gal (1→2) β-D-Xyl trisaccharide (compound B)(synthesized according to Lopez et al., 1994) or for a variable time (0 to 42 hours) in the presence or not in the presence of an effector: cycloheximide (1 μM), okadaic acid (5 nM), staurosporine (500 nM), or boroglycine (500 nM). The elicitation experiment is stopped by putting the cells in ice. The cells recovered after decantation and taken up in approximately 1 ml of elicitation buffer are the subject of a specific protein extraction.
D-glycosylhydrolase extraction. The enzyme extracts are prepared from elicited or non-elicited cells. The cells are homogenized at 0° C. in Tris-HCl buffer (50 mM pH 7.2) containing 1 M of NaCl with a Vibracell™ Bioblock sonicator, maximum power, for 3 times 1 minute. The homogenates are centrifuged at 4° C. (12000 g, 15 minutes) then dialysed and concentrated on Ultrafree™ Millipore ultrafiltration units (cut-off threshold 10 kDa). The retentates, taken up in distilled water, are crude extracts.
β-D-xylosidase activity assay according to the protocol of Lee and Zeikus (1993) after incubation of the enzyme extracts (2 to 4 μg of proteins) in sodium acetate buffer (0.1 M, pH 5), at 40° C. for a variable time (90 to 210 minutes), in the presence of p-nitrophenyl β-D-xylopyranoside (p-NPX) substrate (7.3 μM). After addition of Na2CO3 (0.1 M), the products released are assayed by spectrophotometry at 410 nm.
Evaluation of the experimental data. At least 2 kinetics were carried out per sample, and per set of experiments. The reaction rate (ΔA410 minutes^−1 for example) is obtained by linear regression from 4 kinetic curves. The results are expressed by the ratio R (enzymatic activity in elicited cells/enzymatic activity in non-elicited control cells).

[2] = system: Rubus fruticosus protoplasts; experiment: Elicitation of an oxidative burst: generation of superoxide anion (Cyt c assay); type: cell-based; conditions: 25° C.; for Cytochrome c reduction response (100% = non-elicited controls): at 10 nM; for Optimal response, cytochrome c reduction (100% = non-elicited controls): at the optimal dose
Procedure: Preparation of Rubus fruticosus protoplasts according to Vargas-Rechia (1998). The protoplast yield is of the order of 70 to 85% of the initial number of cells used; the viability of the protoplasts, of the order of 90 to 95%, was checked using Evans blue indicator.
The Cyt c assay was carried out according to Nakanishi et al. (1991) in the following manner. Incubation at 25° C. of 4.10^6 protoplasts in the presence of Cyt c (100 μM), and of the elicitor (0 to 100 μM): 2′-fucosyl lactose (compound A), XXFGol (compound B).
Evaluation of the experimental data: The reaction rate is given by (AF340 min^−1). At least three kinetic curves are plotted per experimental condition. One point on the graph corresponds to the slope of the regression curve deduced from at least 6 kinetic curves.
The elicitation response is evaluated according to the cytochrome c reduction measured by the absorbance variation at […]; the 100% reference value corresponds to the reduction count of the controls (non-elicited protoplast suspensions).

[3] = system: Phospholipase D (E.C: 3.1.4.4); experiment: Elicitation of phospholipase D activity (NBD-PE fluorescence); type: cell-based, Acer pseudoplatanus L.; conditions: for Optimal Plase D response (100% = non-elicited cells): at the optimal concentration
Excerpt: Vegetable material: Acer pseudoplatanus L. cells in Suspension
Phospholipase D (E.C: 3.1.4.4) (Plase D) activity: this is a phosphatidylcholine phosphatidohydrolase which releases the O-R3 group, according to the diagram below. To the extent that O-R3 is marked (a fluorochrome for example), quantifying this group is equivalent to assaying Plase D activity. For the experiments the substrate used is phosphatidylcholine conjugated to a fluorochrome, i.e. the product nitrobenzoxadiazole phosphoethanolamine (NBD-PE). The retained excitation and emission wavelengths of the fluorochrome are 460 nm and 534 nm respectively. [drawing 5]
Principle: assaying Plase D activity is equivalent to estimating the fluorescence variation at 534 nm of a reaction medium with a spectrofluorimeter (Perkin Elmer).
Test: the reaction medium in a microtitration plate well is as follows: 1.3 10^7 Acer pseudoplatanus L. cells are incubated in a 50 mM HEPES buffer, pH 6.8 enriched with CaCl2 (1 μM), ATP (2 μM), octyl-D-glucoside 50 μM, GTP (6 μM) in the presence of the NBD-PE substrate (4 μM), in the presence or absence of an elicitor (0-100 nM): 2′-fucosyl-lactose (FL), compound A; XXFGol, compound B, in the presence or not in the presence of a methyl jasmonate effector (0-5 nM). The Plase D activity assay is carried out by measuring the fluorescence at 534 nm.
Evaluation of the experimental data. For each sample at least three kinetics are recorded; the Plase D activity is given by the slope of the regression curve. The results are expressed by Δ F534 min^−1. One point on the graph corresponds to the linear regression treatment of at least 2 kinetic curves originating from 2 different samples.
The Plase D elicitation response is evaluated according to the fluorescence variation at […]; the 100% reference value corresponds to the fluorescence in the controls (non-elicited cells)

Structure (SMILES) | β-D-xylosidase response R (activity in elicited cells/non-elicited control cells), maximal [1] | β-D-xylosidase response [1] | β-D-xylosidase response R [1] | Elicitor dose of optimal response, cytochrome c reduction (superoxide anion) [2] [nM] | Cytochrome c reduction response (100% = non-elicited controls) [2] [%] | Optimal response, cytochrome c reduction (100% = non-elicited controls) [2] [%] | Elicitor concentration of optimal Plase D response [3] [nM] | Optimal Plase D response (100% = non-elicited cells) [3] [%] | Plase D elicitation: methyl jasmonate versus 2′-fucosyl lactose ([3]; methyl jasmonate 0 to 5 nM, 2′-fucosyl lactose 1 nM, dose-dependent)
C[C@@H]1O[C@@H](O[C@H]2[C@H](O[C@H]3[C@H](O)[C@@H](O)[C@H](O)O[C@@H]3CO)O[C@H](CO)[C@H](O)[C@@H]2O)[C@@H](O)[C@H](O)[C@@H]1O [compound A, α-L-Fuc(1→2)β-D-Gal(1→4)β-D-Glc] | 9 | no significant response | 1 | 50 | 187 | 200 | 1 | 244 | antagonistic
CO[C@@H]1OC[C@@H](O)[C@H](O)[C@H]1O[C@@H]1O[C@H](CO)[C@H](O)[C@H](O)[C@H]1O[C@@H]1O[C@@H](C)[C@@H](O)[C@@H](O)[C@@H]1O [compound B, methyl α-L-Fuc (1→2)β-D-Gal (1→2)β-D-Xyl] | 5 | no significant response | 1 | 15 | 160 | 159 | 1.7 | 230 | 
